According to patent publication US10760052B2, “Method of inhibiting tau phosphorylation” (priority 2012, dated 2020):

Biological target: T1, mu opiate receptor (MOR) (Rattus norvegicus, UniProt P33535)
T1 construct: from tissue; host or cells: striatum (membrane preparation)
Format: biochemical
Conditions: for Concentration of FLNA-Binding Compound as Agonist 0.1 μM / Concentration of FLNA-Binding Compound as Agonist 1 μM / Concentration of FLNA-Binding Compound as Agonist 1 μM + BFNA: [35S]GTPγS binding to Gαo in striatal membranes; for Concentration of FLNA-Binding Compound as Agonist 0.1 μM: compound 0.1 μM; for Concentration of FLNA-Binding Compound as Agonist 1 μM: compound 1 μM; for Concentration of FLNA-Binding Compound as Agonist 1 μM + BFNA: compound 1 μM plus 1 μM β-funaltrexamine (MOR antagonist)
Procedure: To assess the mu opiate receptor (MOR) agonist activity of positive compounds from the FLNA screening, compounds were tested in a [^35S]GTPγS binding assay using striatal membranes. […] This assay measures a functional consequence of receptor occupancy at one of the earliest receptor-mediated events. The assay permits for traditional pharmacological parameters of potency, efficacy and antagonist affinity, with the advantage that agonist measures are not subjected to amplification or other modulation that may occur when analyzing parameters further downstream of the receptor.
Thus, striatal tissue was homogenized in 10 volumes of ice cold 25 mM HEPES buffer, pH 7.4, which contained 1 mM EGTA, 100 mM sucrose, 50 μg/ml leupeptin, 0.04 mM PMSF, 2 μg/ml soybean trypsin inhibitor and 0.2% 2-mercaptoethanol. The homogenates were centrifuged at 800×g for 5 minutes and the supernatants were centrifuged at 49,000×g for 20 minutes.
The resultant striatal membrane preparation (200 μg) was admixed and maintained (incubated) at 30° C. for 5 minutes in reaction buffer as above that additionally contained 1 mM MgCl2 and 0.5 nM [^35S]GTPγS (0.1 μCi/assay, PerkinElmer Life and Analytical Sciences) in a total volume of 250 μl and continued for 5 minutes in the absence or presence of 0.1-10 μM of an assayed compound of interest. The reaction was terminated by dilution with 750 μl of ice-cold reaction buffer that contained 20 mM MgCl2 and 1 mM EGTA and immediate centrifugation at 16,000×g for 5 minutes.
Normal rabbit serum (1 μl) was added to 1 ml of lysate and incubated at 25° C. for 30 minutes. Nonspecific immune complexes were removed by incubation with 25 μl of protein A/G-conjugated agarose beads at 25° C. for 30 minutes followed by centrifugation at 5,000×g at 4° C. for 5 minutes. The supernatant was divided and separately incubated at 25° C. for 30 minutes with antibodies raised against Gαo proteins (1:1,000 dilutions).
The immunocomplexes so formed were collected by incubation at 25° C. for 30 minutes with 40 μl of agarose-conjugated protein A/G beads and centrifugation at 5,000×g at 4° C. for 5 minutes. The pellet was washed and suspended in buffer containing 50 mM Tris-HCl, pH 8.0, and 1% NP-40. The radioactivity in the suspension was determined by liquid scintillation spectrometry.

T1 sequence (P33535 whole entry): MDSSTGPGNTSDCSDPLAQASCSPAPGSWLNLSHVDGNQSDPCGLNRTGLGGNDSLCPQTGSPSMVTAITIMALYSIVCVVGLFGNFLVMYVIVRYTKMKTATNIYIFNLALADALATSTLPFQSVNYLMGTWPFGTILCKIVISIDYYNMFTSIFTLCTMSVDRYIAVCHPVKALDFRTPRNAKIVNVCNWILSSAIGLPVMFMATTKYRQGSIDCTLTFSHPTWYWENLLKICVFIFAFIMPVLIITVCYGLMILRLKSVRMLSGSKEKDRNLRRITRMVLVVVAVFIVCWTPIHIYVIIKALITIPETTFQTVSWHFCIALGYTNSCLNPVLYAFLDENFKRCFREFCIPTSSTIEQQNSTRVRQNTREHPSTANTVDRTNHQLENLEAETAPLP

Row | SMILES | % DAMGO (0.1 μM) | % DAMGO (1 μM) | % DAMGO + BFNA | Concentration of FLNA-Binding Compound as Agonist 0.1 μM | Concentration of FLNA-Binding Compound as Agonist 1 μM | Concentration of FLNA-Binding Compound as Agonist 1 μM + BFNA
1 | CC1CCC(C(C)C)C(OCC(O)CN2CCN(CCCN3CCOCC3)CC2)C1 (stereo not drawn) [Compound A0026] | 79.7% | 70.7% | 459.3% | 140.7% | 179.8% | 120.8%
2 | Cc1ccc(C(C)C)c(OCC(O)CN2CC(C)OC(C)C2)c1 (stereo not drawn) [Compound A0028] | 81.3% | 73.8% | 443.7% | 143.6% | 187.7% | 116.7%
3 | CC1CN(CC(O)COc2ccccc2C(C)C)CC(C)O1 (stereo not drawn) [Compound A0029] | 98.4% | 81.2% | 84.8% | 173.8% | 206.5% | 22.3%
4 | Cc1cccc(OCC(O)CN2CC(C)OC(C)C2)c1 (stereo not drawn) [Compound A0030] | 75.5% | 113.2% | 628.1% | 133.4% | 287.8% | 165.2%
5 | CC1CCC(C(C)C)C(OCC(O)CN2CCN(CCN3CCCCC3)CC2)C1 (stereo not drawn) [Compound A0031] | 100.9% | 116.8% | 573.8% | 178.2% | 297.0% | 150.9%
6 | CC1CCC(C(C)C)C(OCC(O)CN2CC(C)OC(C)C2)C1 (stereo not drawn) [Compound A0032-1] | 95.5% | 117.6% | 303.8% | 187.4% | 324.5% | 224.5%
7 | CCN(CC)CC(O)COC1CC(C)CCC1C(C)C (stereo not drawn) [Compound A0032] | 115.6% | 93.4% | 180.0% | 226.9% | 257.8% | 133.0%
8 | CC1CCC(C(C)C)C(OCC(CN2CC(C)OC(C)C2)NCc2ccccc2)C1 (stereo not drawn) [Compound A0033] | 79.4% | 92.2% | 159.9% | 155.8% | 254.6% | 118.2%
9 | CC1CCC(C(C)C)C(OCC(O)CN2CCCC2=O)C1 (stereo not drawn) [Compound A0035] | 61.5% | 57.5% | 119.9% | 120.6% | 158.8% | 88.6%
10 | CC1CCC(C(C)C)C(OCC(O)CN2CCCCC2=O)C1 (stereo not drawn) [Compound A0036] | 73.4% | 60.7% | 85.5% | 144.1% | 167.5% | 63.2%
11 | CC1CCC(C(C)C)C(OCC(O)CN(C(C)C)C(C)C)C1 (stereo not drawn) [Compound A0037] | 90.7% | 85.6% | 141.5% | 177.9% | 236.2% | 104.6%
12 | CC1CCC(C(C)C)C(OCC(O)Cn2cccc2)C1 (stereo not drawn) [Compound A0038] | 90.1% | 85.0% | 144.8% | 176.7% | 234.5% | 107.0%
13 | CC1CCC(C(C)C)C(OCC(O)CN2CCc3ccccc3C2)C1 (stereo not drawn) [Compound A0040] | 23.5% | 54.0% | 22.6% | 46.1% | 149.0% | 16.7%
14 | CC1CN(CC(O)COc2ccc(Br)c(F)c2)CC(C)O1 (stereo not drawn) [Compound A0041] | 108.4% | 102.8% | 68.5% | 212.7% | 283.6% | 50.6%
15 | CC1CN(CC(O)COc2cccc(N(C)C)c2)CC(C)O1 (stereo not drawn) [Compound A0042] | 75.2% | 84.5% | 121.1% | 147.5% | 233.1% | 89.5%
16 | CC1CN(CC(O)COc2ccccc2Br)CC(C)O1 (stereo not drawn) [Compound A0043] | 93.4% | 81.1% | 120.6% | 183.3% | 223.8% | 89.1%
17 | CC(=O)c1ccc(OCC(O)CN2CC(C)OC(C)C2)cc1 (stereo not drawn) [Compound A0044] | 89.8% | 75.8% | 182.3% | 176.2% | 209.1% | 134.7%
18 | CC1CN(CC(O)COc2ccc(Br)c(Cl)c2)CC(C)O1 (stereo not drawn) [Compound A0045] | 73.3% | 99.3% | 134.2% | 143.9% | 274.2% | 99.2%
19 | CC1CN(CC(O)COc2cc(F)cc(F)c2)CC(C)O1 (stereo not drawn) [Compound A0046] | 131.2% | 128.3% | 189.4% | 257.5% | 354.1% | 140.0%
20 | CC1CN(CC(O)COc2ccc(Cl)cc2)CC(C)O1 (stereo not drawn) [Compound A0047] | 118.8% | 92.4% | 157.6% | 233.0% | 255.0% | 116.5%
21 | COc1ccc(OCC(O)CN2CC(C)OC(C)C2)cc1 (stereo not drawn) [Compound A0048] | 119.1% | 109.7% | 226.3% | 233.7% | 302.9% | 167.2%
22 | CC1CN(CC(O)COc2cccc(F)c2)CC(C)O1 (stereo not drawn) [Compound A0049] | 118.4% | 134.2% | 144.9% | 232.3% | 370.3% | 107.1%
23 | CN(C)c1cccc(OCC(O)CN2CCc3ccccc3C2)c1 (stereo not drawn) [Compound A0050] | 77.0% | 68.6% | 109.6% | 151.0% | 189.3% | 81.0%
24 | CC1CN(CC(O)COc2cccc(C(F)(F)F)c2)CC(C)O1 (stereo not drawn) [Compound A0051] | 148.0% | 140.1% | 286.3% | 290.4% | 386.6% | 211.6%
25 | COc1ccc(OCC(O)CN2CCc3ccccc3C2)cc1 (stereo not drawn) [Compound A0053] | 46.5% | 47.5% | 46.2% | 78.5% | 118.2% | 15.1%
